Test results reported in PubChem BioAssay (NCI).
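Method: 48-hour compound exposure of cells in 96-well plates, five concentrations, linear interpolation of endpoints. The concentration for full growth arrest is given as TGI.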

What was measured:
Test in all cases: growth of human tumour cells (NCI), 48 h
[1] = system: 786-0 renal
[2] = system: A549 NSCLC
[3] = system: ACHN renal
[4] = system: CCRF-CEM leukemia
[5] = system: COLO 205 colon
[6] = system: DMS 114 small cell lung
[7] = system: DMS 273 small cell lung
[8] = system: EKVX NSCLC
[9] = system: HCT-116 colon
[10] = system: HL-60(TB) leukemia
[11] = system: HOP-18 NSCLC
[12] = system: HOP-92 NSCLC
[13] = system: HT29 colon
[14] = system: K-562 leukemia
[15] = system: M14 melanoma
[16] = system: MALME-3M melanoma
[17] = system: MOLT-4 leukemia
[18] = system: NCI-H23 lung
[19] = system: OVCAR-3 ovarian
[20] = system: OVCAR-4 ovarian
[21] = system: OVCAR-8 ovarian
[22] = system: RPMI-8226 leukemia
[23] = system: SF-268 CNS
[24] = system: SF-295 CNS
[25] = system: SF-539 CNS
[26] = system: SK-MEL-28 melanoma
[27] = system: SK-OV-3 ovarian
[28] = system: SN12C renal
[29] = system: SNB-19 CNS
[30] = system: SNB-75 CNS
[31] = system: SNB-78 CNS
[32] = system: U251 CNS
[33] = system: UACC-257 melanoma
[34] = system: UO-31 renal
[35] = system: XF 498 CNS
[36] = system: A498 renal
[37] = system: CAKI-1 renal
[38] = system: DLD-1 colon
[39] = system: HCC-2998 colon
[40] = system: HCT-15 colon
[41] = system: HOP-62 NSCLC
[42] = system: IGROV1 ovarian
[43] = system: KM12 colon
[44] = system: KM20L2 colon
[45] = system: LOX IMVI melanoma
[46] = system: LXFL 529 NSCLC
[47] = system: M19-MEL melanoma
[48] = system: NCI-H226 lung
[49] = system: NCI-H460 lung
[50] = system: NCI-H522 lung
[51] = system: OVCAR-5 ovarian
[52] = system: RXF 393 renal
[53] = system: RXF-631 renal
[54] = system: SK-MEL-2 melanoma
[55] = system: SK-MEL-5 melanoma
[56] = system: SW-620 colon
[57] = system: TK-10 renal
[58] = system: UACC-62 melanoma
[59] = system: SR leukemia

Measured: TGI

COc1ccc(CSc2nc3ccccc3nc2-c2cccs2)cc1
76.3 µM: [4]
not listed: [36] | [37] | [38] | [39] | [40] | [41] | [42] | [43] | [44] | [45] | [46] | [47] | [48] | [49] | [50] | [51] | [52] | [53] | [54] | [55] | [56] | [57] | [58] | [59]
> 100 µM: all other assays above

COc1ccc(COCC(Cn2ccnc2)OCc2ccc(C(=O)O)cc2)cc1 (stereo not given)
not listed: [7] | [11] | [19] | [29] | [59]
> 100 µM: all other assays above

COC1CC(n2cnc3c(N)ncnc32)OC1CO (stereo not given)
not listed: [8] | [11] | [27] | [28] | [31] | [36] | [45] | [52] | [53]
> 100 µM: all other assays above

O=C(O)CCC1CCc2cccc3occ1c23 (stereo not given)
not listed: [11] | [35] | [59]
> 100 µM: all other assays above
